Source: ChEMBL document CHEMBL4800729 (2021)

What was measured:
[1] = target: Myosin light chain kinase 2, skeletal/cardiac muscle (Homo sapiens) (UniProt Q9H1R3); experiment: MYLK2(h) Millipore kinase panel; settings: Compound concentration 1.0 uM
[2] = target: Beta-1 adrenergic receptor (Homo sapiens) (UniProt P08588); settings: Compound concentration 10.0 uM
[3] = target: Histamine H1 receptor (Homo sapiens) (UniProt P35367); settings: Compound concentration 10.0 uM
[4] = target: Serine/threonine-protein kinase pim-2 (Homo sapiens) (UniProt Q9P1W9); experiment: Pim-2(h) Millipore kinase panel; settings: Compound concentration 1.0 uM
[5] = target: 5-hydroxytryptamine receptor 1B (Homo sapiens, UniProt P28222); settings: Compound concentration 10.0 uM
[6] = target: 5-hydroxytryptamine receptor 6 (Homo sapiens, UniProt P50406); settings: Compound concentration 10.0 uM
5-hydroxytryptamine receptor 6, sequence (P50406 whole entry): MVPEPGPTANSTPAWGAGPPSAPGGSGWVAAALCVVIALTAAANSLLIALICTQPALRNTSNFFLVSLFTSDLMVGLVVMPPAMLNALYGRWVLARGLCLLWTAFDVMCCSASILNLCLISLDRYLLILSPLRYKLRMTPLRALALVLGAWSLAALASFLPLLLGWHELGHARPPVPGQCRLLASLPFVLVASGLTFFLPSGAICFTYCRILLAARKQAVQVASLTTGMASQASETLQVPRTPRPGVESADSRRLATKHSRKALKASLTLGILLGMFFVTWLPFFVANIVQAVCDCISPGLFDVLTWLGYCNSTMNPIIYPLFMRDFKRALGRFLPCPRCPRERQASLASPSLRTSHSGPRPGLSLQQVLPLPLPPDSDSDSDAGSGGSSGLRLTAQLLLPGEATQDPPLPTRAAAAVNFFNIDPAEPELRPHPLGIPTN

[7] = target: Fibroblast growth factor receptor 2 (Homo sapiens) (UniProt P21802); experiment: FGFR2(h) Millipore kinase panel; settings: Compound concentration 1.0 uM
[8] = target: D(4) dopamine receptor (Homo sapiens) (UniProt P21917); settings: Compound concentration 10.0 uM
[9] = target: Serine/threonine-protein kinase 3 (Homo sapiens) (UniProt Q13188); experiment: MST2(h) Millipore kinase panel; settings: Compound concentration 1.0 uM
[10] = target: Serine/threonine-protein kinase TAO3 (Homo sapiens) (UniProt Q9H2K8); experiment: TAO3(h) Millipore kinase panel; settings: Compound concentration 1.0 uM
[11] = target: Serine/threonine-protein kinase SIK1 (Homo sapiens) (UniProt P57059); experiment: SIK(h) Millipore kinase panel; settings: Compound concentration 1.0 uM
[12] = target: Serine/threonine-protein kinase TBK1 (Homo sapiens) (UniProt Q9UHD2); experiment: TBK1(h) Millipore kinase panel; settings: Compound concentration 1.0 uM
[13] = target: MAP/microtubule affinity-regulating kinase 3 (Homo sapiens) (UniProt P27448); experiment: MARK3(h) Millipore kinase panel; settings: Compound concentration 1.0 uM
[14] = target: Mitogen-activated protein kinase kinase kinase 5 (Homo sapiens) (UniProt Q99683); experiment: ASK1(h) Millipore kinase panel; settings: Compound concentration 1.0 uM
[15] = target: cGMP-specific 3',5'-cyclic phosphodiesterase (Homo sapiens) (UniProt O76074); settings: Compound concentration 10.0 uM
[16] = target: BMP-2-inducible protein kinase (Homo sapiens) (UniProt Q9NSY1); experiment: BIKe(h) Millipore kinase panel; settings: Compound concentration 1.0 uM
BMP-2-inducible protein kinase (Homo sapiens), sequence (Q9NSY1 whole entry, looked up): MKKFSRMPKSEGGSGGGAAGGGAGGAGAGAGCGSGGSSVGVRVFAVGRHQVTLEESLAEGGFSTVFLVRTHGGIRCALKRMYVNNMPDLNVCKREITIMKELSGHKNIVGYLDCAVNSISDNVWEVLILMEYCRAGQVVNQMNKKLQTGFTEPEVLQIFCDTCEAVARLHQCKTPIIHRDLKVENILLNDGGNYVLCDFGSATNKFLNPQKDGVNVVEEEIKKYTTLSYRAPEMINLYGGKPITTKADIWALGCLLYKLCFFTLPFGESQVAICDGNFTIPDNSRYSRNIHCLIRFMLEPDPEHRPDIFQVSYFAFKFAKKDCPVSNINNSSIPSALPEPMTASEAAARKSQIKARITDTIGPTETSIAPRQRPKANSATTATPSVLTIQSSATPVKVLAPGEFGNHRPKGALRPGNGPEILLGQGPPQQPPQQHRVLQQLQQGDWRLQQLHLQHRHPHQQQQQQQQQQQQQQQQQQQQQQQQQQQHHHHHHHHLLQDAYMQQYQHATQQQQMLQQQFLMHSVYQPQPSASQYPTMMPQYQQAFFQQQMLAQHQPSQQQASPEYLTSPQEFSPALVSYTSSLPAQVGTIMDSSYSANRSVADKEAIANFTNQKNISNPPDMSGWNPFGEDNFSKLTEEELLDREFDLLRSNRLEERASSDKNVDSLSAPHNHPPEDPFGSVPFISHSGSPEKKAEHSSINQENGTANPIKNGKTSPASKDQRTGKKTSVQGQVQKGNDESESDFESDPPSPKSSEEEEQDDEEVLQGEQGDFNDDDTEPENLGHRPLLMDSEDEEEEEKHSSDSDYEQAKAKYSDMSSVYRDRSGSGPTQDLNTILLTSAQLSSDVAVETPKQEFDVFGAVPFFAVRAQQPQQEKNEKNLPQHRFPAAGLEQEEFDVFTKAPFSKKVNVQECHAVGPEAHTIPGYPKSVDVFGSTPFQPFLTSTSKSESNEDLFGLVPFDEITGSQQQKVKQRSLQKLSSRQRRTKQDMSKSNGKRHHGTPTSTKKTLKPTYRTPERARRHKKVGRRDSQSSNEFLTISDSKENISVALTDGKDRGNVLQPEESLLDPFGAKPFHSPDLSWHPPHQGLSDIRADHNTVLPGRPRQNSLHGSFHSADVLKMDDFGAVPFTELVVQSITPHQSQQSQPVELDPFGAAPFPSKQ

[17] = target: Serine/threonine-protein kinase ICK (Homo sapiens) (UniProt Q9UPZ9); experiment: ICK(h) Millipore kinase panel; settings: Compound concentration 1.0 uM
[18] = target: Kappa-type opioid receptor (Homo sapiens) (UniProt P41145); settings: Compound concentration 10.0 uM
[19] = target: Vascular endothelial growth factor receptor 1 (Homo sapiens) (UniProt P17948); experiment: Flt1(h) Millipore kinase panel; settings: Compound concentration 1.0 uM
[20] = target: Serine-protein kinase ATM (Homo sapiens) (UniProt Q13315); experiment: ATM(h) Millipore kinase panel; settings: Compound concentration 1.0 uM
[21] = target: Dual specificity protein kinase CLK1 (Homo sapiens) (UniProt P49759); experiment: CLK1(h) Millipore kinase panel; settings: Compound concentration 1.0 uM
[22] = target: Type-2 angiotensin II receptor (Homo sapiens) (UniProt P50052); settings: Compound concentration 10.0 uM
[23] = target: Cyclin-dependent kinase-like 3 (Homo sapiens) (UniProt Q8IVW4); experiment: CDKL3(h) Millipore kinase panel; settings: Compound concentration 1.0 uM
[24] = target: Muscarinic acetylcholine receptor M3 (Homo sapiens) (UniProt P20309); settings: Compound concentration 10.0 uM
[25] = target: Cyclin-dependent kinase 2/cyclin A (Homo sapiens) (UniProt P24941+P20248+P78396); experiment: CDK2/cyclinA(h) Millipore kinase panel; type: protein-complex assay; settings: Compound concentration 1.0 uM
[26] = target: 5-hydroxytryptamine receptor 2A (Homo sapiens) (UniProt P28223); settings: Compound concentration 10.0 uM
[27] = target: PI3K p110 beta/p85 alpha (Homo sapiens) (UniProt P27986+P42338); experiment: PI3 Kinase (p110b/p85a)(h) Millipore kinase panel; type: protein-complex assay; settings: Compound concentration 1.0 uM
PI3K p110 beta/p85 alpha (Homo sapiens), sequence (P27986 2-724 limits assumed): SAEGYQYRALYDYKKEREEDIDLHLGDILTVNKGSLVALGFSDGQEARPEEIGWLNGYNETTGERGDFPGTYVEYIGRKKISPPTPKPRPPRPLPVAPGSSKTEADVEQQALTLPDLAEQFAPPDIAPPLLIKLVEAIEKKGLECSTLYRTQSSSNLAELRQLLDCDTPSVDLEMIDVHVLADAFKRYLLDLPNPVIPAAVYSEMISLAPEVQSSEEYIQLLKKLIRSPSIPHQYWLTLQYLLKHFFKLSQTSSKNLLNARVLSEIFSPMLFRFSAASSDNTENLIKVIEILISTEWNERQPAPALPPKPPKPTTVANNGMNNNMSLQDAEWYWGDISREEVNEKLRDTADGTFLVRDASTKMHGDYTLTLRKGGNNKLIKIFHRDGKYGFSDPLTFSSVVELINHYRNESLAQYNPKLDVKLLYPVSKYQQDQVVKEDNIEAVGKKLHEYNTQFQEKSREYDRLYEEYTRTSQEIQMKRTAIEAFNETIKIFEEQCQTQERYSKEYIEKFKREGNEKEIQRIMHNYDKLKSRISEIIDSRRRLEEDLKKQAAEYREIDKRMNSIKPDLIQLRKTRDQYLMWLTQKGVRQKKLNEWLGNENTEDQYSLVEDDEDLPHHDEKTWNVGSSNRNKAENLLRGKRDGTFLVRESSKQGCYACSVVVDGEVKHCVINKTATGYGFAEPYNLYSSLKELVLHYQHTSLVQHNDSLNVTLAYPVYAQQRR
PI3K p110 beta/p85 alpha (Homo sapiens), sequence (P42338 whole entry partner): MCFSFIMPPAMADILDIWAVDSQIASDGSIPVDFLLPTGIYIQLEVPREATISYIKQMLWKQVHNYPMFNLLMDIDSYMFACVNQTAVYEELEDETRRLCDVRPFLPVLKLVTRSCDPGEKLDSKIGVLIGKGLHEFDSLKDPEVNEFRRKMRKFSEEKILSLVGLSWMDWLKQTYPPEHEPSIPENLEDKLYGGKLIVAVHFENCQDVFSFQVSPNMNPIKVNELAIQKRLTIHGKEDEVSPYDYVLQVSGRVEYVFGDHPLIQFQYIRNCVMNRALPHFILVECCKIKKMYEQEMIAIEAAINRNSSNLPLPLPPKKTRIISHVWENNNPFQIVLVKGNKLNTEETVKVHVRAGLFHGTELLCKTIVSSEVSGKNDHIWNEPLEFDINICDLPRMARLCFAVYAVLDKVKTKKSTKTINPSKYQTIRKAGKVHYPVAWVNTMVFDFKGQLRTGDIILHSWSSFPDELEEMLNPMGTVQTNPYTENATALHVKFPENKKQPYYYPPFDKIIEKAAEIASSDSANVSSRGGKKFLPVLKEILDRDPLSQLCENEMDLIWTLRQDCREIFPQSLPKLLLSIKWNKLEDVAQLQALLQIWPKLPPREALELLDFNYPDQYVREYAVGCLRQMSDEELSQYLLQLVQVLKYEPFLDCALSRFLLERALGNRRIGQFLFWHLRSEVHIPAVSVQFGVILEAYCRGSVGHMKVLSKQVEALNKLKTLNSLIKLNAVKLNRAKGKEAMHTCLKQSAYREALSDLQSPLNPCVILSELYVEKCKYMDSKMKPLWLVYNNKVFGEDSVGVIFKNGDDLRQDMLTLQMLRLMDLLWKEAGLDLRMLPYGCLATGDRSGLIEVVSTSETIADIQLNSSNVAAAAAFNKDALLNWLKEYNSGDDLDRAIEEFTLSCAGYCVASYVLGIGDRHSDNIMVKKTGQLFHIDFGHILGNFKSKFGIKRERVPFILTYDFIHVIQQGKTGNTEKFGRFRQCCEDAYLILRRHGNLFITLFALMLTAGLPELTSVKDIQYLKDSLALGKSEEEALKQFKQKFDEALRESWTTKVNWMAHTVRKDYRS

[28] = target: Serine/threonine-protein kinase Nek2 (Homo sapiens) (UniProt P51955); experiment: NEK2(h) Millipore kinase panel; settings: Compound concentration 1.0 uM
Serine/threonine-protein kinase Nek2 (Homo sapiens), sequence (P51955 whole entry): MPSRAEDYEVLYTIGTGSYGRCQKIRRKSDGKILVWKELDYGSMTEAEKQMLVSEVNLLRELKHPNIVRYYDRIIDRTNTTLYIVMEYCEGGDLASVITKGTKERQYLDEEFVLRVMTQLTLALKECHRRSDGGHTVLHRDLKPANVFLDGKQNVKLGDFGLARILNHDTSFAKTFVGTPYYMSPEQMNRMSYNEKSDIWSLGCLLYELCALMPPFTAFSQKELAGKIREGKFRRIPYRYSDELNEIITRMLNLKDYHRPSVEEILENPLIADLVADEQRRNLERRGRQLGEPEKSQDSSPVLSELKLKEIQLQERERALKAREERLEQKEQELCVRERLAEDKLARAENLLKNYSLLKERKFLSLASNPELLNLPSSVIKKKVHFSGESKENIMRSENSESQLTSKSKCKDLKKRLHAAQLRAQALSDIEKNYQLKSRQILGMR

[29] = target: Macrophage colony-stimulating factor 1 receptor (Homo sapiens) (UniProt P07333); experiment: Fms(h) Millipore kinase panel; settings: Compound concentration 1.0 uM
[30] = target: Cyclin-dependent kinase 14/Cyclin-Y (Homo sapiens) (UniProt O94921+Q8ND76); experiment: CDK14/cyclinY(h) Millipore kinase panel; type: protein-complex assay; settings: Compound concentration 1.0 uM
[31] = target: Serine/threonine-protein kinase PAK 1 (Homo sapiens) (UniProt Q13153); experiment: PAK1(h) Millipore kinase panel; settings: Compound concentration 1.0 uM
[32] = target: Tyrosine-protein kinase BTK (Homo sapiens) (UniProt Q06187); experiment: BTK(h) Millipore kinase panel; settings: Compound concentration 1.0 uM
[33] = target: Epithelial discoidin domain-containing receptor 1 (Homo sapiens) (UniProt Q08345); experiment: DDR1(h) Millipore kinase panel; settings: Compound concentration 1.0 uM
[34] = target: Hepatocyte growth factor receptor (Homo sapiens) (UniProt P08581); experiment: Met(h) Millipore kinase panel; settings: Compound concentration 1.0 uM
[35] = target: Serine/threonine-protein kinase Nek11 (Homo sapiens) (UniProt Q8NG66); experiment: NEK11(h) Millipore kinase panel; settings: Compound concentration 1.0 uM
Serine/threonine-protein kinase Nek11 (Homo sapiens), sequence (Q8NG66 whole entry): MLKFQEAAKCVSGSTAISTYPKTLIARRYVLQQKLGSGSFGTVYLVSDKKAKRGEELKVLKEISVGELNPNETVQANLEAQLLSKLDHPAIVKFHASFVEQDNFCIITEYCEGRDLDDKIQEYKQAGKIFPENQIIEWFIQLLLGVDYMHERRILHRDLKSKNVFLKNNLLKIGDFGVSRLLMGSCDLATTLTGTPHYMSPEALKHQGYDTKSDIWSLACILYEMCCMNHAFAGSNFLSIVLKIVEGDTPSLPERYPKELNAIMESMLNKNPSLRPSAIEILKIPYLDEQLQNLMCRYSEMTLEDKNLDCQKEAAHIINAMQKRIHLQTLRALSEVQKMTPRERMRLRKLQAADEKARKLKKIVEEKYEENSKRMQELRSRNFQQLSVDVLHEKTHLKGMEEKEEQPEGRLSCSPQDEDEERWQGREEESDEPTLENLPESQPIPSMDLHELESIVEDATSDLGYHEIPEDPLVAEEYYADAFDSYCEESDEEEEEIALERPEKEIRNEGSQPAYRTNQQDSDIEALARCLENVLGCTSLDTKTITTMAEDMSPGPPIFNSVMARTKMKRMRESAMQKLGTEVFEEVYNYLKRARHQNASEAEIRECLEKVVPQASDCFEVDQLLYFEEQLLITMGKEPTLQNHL

[36] = target: Eukaryotic elongation factor 2 kinase (Homo sapiens) (UniProt O00418); experiment: eEF-2K(h) Millipore kinase panel; settings: Compound concentration 1.0 uM
[37] = target: Mitogen-activated protein kinase kinase kinase kinase 5 (Homo sapiens) (UniProt Q9Y4K4); experiment: MAP4K5(h) Millipore kinase panel; settings: Compound concentration 1.0 uM
[38] = target: Ribosomal protein S6 kinase alpha-3 (Homo sapiens) (UniProt P51812); experiment: Rsk2(h) Millipore kinase panel; settings: Compound concentration 1.0 uM
[39] = target: Death-associated protein kinase 2 (Homo sapiens) (UniProt Q9UIK4); experiment: DAPK2(h) Millipore kinase panel; settings: Compound concentration 1.0 uM
[40] = target: Tyrosine-protein kinase TXK (Homo sapiens) (UniProt P42681); experiment: Txk(h) Millipore kinase panel; settings: Compound concentration 1.0 uM
Tyrosine-protein kinase TXK (Homo sapiens), sequence (P42681 whole entry, the tested form may be a part): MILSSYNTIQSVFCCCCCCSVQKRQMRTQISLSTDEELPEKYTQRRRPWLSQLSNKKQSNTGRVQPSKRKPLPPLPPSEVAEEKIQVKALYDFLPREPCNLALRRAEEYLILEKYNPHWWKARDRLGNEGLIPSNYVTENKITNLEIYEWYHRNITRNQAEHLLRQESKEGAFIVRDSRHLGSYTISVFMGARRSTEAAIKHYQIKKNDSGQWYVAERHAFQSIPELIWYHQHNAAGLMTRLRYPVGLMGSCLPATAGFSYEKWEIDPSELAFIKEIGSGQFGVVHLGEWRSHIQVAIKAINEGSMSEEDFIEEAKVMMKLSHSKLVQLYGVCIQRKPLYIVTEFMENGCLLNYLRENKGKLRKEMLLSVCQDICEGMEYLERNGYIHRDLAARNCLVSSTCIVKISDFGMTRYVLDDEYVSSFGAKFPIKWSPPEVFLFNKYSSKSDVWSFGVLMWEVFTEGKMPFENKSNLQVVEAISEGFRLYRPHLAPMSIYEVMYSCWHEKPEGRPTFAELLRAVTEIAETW

[41] = target: Discoidin domain-containing receptor 2 (Homo sapiens) (UniProt Q16832); experiment: DDR2(h) Millipore kinase panel; settings: Compound concentration 1.0 uM
[42] = target: PI3-kinase p110-alpha/p85-alpha (Homo sapiens) (UniProt P27986+P42336); experiment: PI3 Kinase (p110a/p85a)(h) Millipore kinase panel; type: protein-complex assay; settings: Compound concentration 1.0 uM
[43] = target: Adenosine receptor A2a (Homo sapiens) (UniProt P29274); settings: Compound concentration 10.0 uM
[44] = target: Mitogen-activated protein kinase kinase kinase kinase 3 (Homo sapiens) (UniProt Q8IVH8); experiment: MAP4K3(h) Millipore kinase panel; settings: Compound concentration 1.0 uM
[45] = target: Rho-associated protein kinase 2 (Homo sapiens) (UniProt O75116); experiment: ROCK-II(h) Millipore kinase panel; settings: Compound concentration 1.0 uM
[46] = target: Dual specificity tyrosine-phosphorylation-regulated kinase 3 (Homo sapiens) (UniProt O43781); experiment: DYRK3(h) Millipore kinase panel; settings: Compound concentration 1.0 uM
[47] = target: CDK3/cyclin E (Homo sapiens) (UniProt P24864+O96020+Q00526); experiment: CDK3/cyclinE(h) Millipore kinase panel; type: protein-complex assay; settings: Compound concentration 1.0 uM
[48] = target: Serine/threonine-protein kinase pim-3 (Homo sapiens) (UniProt Q86V86); experiment: Pim-3(h) Millipore kinase panel; settings: Compound concentration 1.0 uM

CC[C@@H](Nc1c(C#N)c(-c2ccc(-c3cccc(C)c3F)cc2)nc2cnccc12)C(=O)O [BAY-091]
inhibition [1]: 7.84%
inhibition [2]: 2%
inhibition [3]: 12.3%
inhibition [4]: 6.42%
inhibition [5]: 11.3%
inhibition [6]: -2.99%
inhibition [7]: 9.63%
inhibition [8]: 2.8%
inhibition [9]: 0.08%
inhibition [10]: 2.25%
inhibition [11]: 13.4%
inhibition [12]: 8.44%
inhibition [13]: -4.67%
inhibition [14]: -9.98%
inhibition [15]: 62%
inhibition [16]: 5.17%
inhibition [17]: 14.8%
inhibition [18]: -2%
inhibition [19]: 56.8%
inhibition [20]: 0.32%
inhibition [21]: 3.74%
inhibition [22]: 11%
inhibition [23]: 8.18%
inhibition [24]: 0%
inhibition [25]: -1.5%
inhibition [26]: 19%
inhibition [27]: 0.43%
inhibition [28]: 15.9%
inhibition [29]: -5.04%
inhibition [30]: 18.1%
inhibition [31]: 23.8%
inhibition [32]: 12.8%
inhibition [33]: 11.7%
inhibition [34]: 2.36%
inhibition [35]: 7.12%
inhibition [36]: 5.5%
inhibition [37]: 13.3%
inhibition [38]: 1.78%
inhibition [39]: -6.79%
inhibition [40]: -2.9%
inhibition [41]: 16.3%
inhibition [42]: 11%
inhibition [43]: 7%
inhibition [44]: 8.29%
inhibition [45]: -0.6%
inhibition [46]: 7.66%
inhibition [47]: 2.41%
inhibition [48]: 1.67%
